According to patent publication US20230398087A1, “APPLICATION OF BZP IN TREATMENT OF ISCHEMIC CARDIOVASCULAR AND CEREBRAL VASCULAR DISEASES” (priority 2020, published 2023):
pIC50: −log10 of the molar value. Values joined by “and” are separate entries in the source; they are usually repeats but may differ in a detail not shown here. Identical values can stand only once. “Also recorded” adds a separate entry of the source.

Experiments:
[1] = test system: acute global cerebral ischemia in rats; test: Acute global cerebral ischemia in rats, volume of cerebral infarction (nuclear magnetic resonance); assay type: in vivo
Text: 2.7 The Protective Effect of BZP on Acute Global Cerebral Ischemia in Rats: […]

experimental thrombosis = test: Experimental thrombosis in rats; assay type: in vivo; details: for results of experimental thrombosis: significantly lower than model group (P<0.01)
[2] = Tissue distribution, metabolism and excretion in animals; assay type: in vivo
Text: BNBP-OH is the main metabolite of BNBP (via NADPH coenzyme/CYP450).

in vivo = details: for recovery of toxic reactions in the nervous system and respiratory system: acute toxicity test; for MTD: in vivo, single intravenous injection
Procedure: In the acute toxicity test, a single intravenous injection of BZP was given to rats and dogs, and the MTDs were 200 mg/kg and 300 mg/kg.

[3] = test system: global cerebral ischemia-reperfusion model in rats; test: Global cerebral ischemia-reperfusion injury in rats; assay type: in vivo
Procedure: (§1) BZP has a protective effect on cerebral ischemia-reperfusion injury and is effective when administered within 4 hours after ischemia, especially within 2 hours after ischemia.
2.5 The Protective Effect of BZP on Global Cerebral Ischemia-Reperfusion Injury in Rats:
BZP has a protective effect on acute global cerebral ischemia in rats, and its mechanism is to inhibit the inflammatory response and apoptosis of cells.

salt-sensitive rats = test: Salt-sensitive rats; assay type: in vivo
MCAO model rats = test: Focal cerebral ischemia-reperfusion injury in rats (MCAO model); assay type: in vivo
Procedure: as §1
In the follow-up test, the drug was administered at 2 h of ischemia.
BZP can improve motor dysfunction, reduce the volume of cerebral infarction, and reduce cerebral edema. The optimal treatment time window is within 4 hours after ischemia, especially within 2 hours after ischemia.

platelet aggregation = test: Ex vivo platelet aggregation; assay type: cell-based
[4] = test system: acute ischemic stroke patients; test: BZP1703 Phase II clinical trial in acute ischemic stroke; assay type: in vivo, human; details: preliminary results
Text: The BZP1703 clinical trial is a multi-center, randomized, double-blind, placebo-controlled Phase II clinical trial. The purpose of the trial is to evaluate the safety and feasibility of different doses of BZP for injection compared with placebo in the treatment of acute ischemic stroke, and to preliminarily explore its effectiveness, so as to provide a basis for the design of Phase III clinical trial.
The trial plans to enroll 375 acute ischemic stroke patients aged 45 to 75 in China. […]
The primary safety endpoint of the BZP1703 trial is SAE, and the primary efficacy endpoint is the difference between the NIHSS score on day 14 and the baseline NIHSS score. Secondary safety endpoints include all-cause death, fatal bleeding and symptomatic intracranial hemorrhage, hemorrhagic transformation of cerebral infarction detected by head magnetic resonance imaging (MRI) on day 14, various adverse events; other bleeding events, AE, AEs of special interest (seizures, bradycardia, atrioventricular block, coagulation abnormalities, proteinuria, leukopenia), number and incidence of patients with new vascular events (ischemic stroke/hemorrhagic stroke/myocardial infarction/vascular death), vital signs, physical examination, laboratory tests (blood routine, blood biochemistry, urine routine, stool routine, coagulation function, etc.), 12-lead electrocardiogram (ECG) and other abnormalities. […]

[5] = BZP1702 Phase I multiple doses pharmacokinetics in healthy subjects; details: for half-life: both, human, plasma
Procedure: Analysis population: same as BZP1601 trial. The study contained 4 BZP groups (50 mg, 100 mg, 200 mg respectively) and a placebo group. Each group enrolled 10, 10, 10 and 6 subjects, respectively, a total of 36 subjects. 1 subject in the 50 mg group took a drug two days before the administration, and the paracetamol, caffeine, artificial cow-bezoar and chlorphenamine maleate may affect the metabolism of the drug, and the subject dropped out of the group after collecting a 24-hour blood sample on the second day of administration, so the pharmacokinetic parameters could not be fully calculated, and thus this subject was not included in the pharmacokinetic analysis data set, and the other 29 subjects who were given BZP were all included in the pharmacokinetic analysis data set.
The blood samples were collected at 0 minutes, 20 minutes, 40 minutes, minutes (end of infusion), 1.25 hours, 1.5 hours, 2 hours, 2.5 hours, 3 hours, 4 hours, 6 hours, 8 hours, 12 hours, 16 hours, 24 hours, 36 hours, and 48 hours after administration in BZP1601 trial, while in the BZP1702 trial, on the first day of administration, the blood samples were collected only by 24 hours after administration.

[6] = 12 and 24 mg/kg of BZP (P<0.01)
[7] = compared with the model group (P<0.05)
[8] = BZP 3, 12 and 24 mg/kg, dose-dependent
[9] = BZP 3, 12 and 24 mg/kg, compared with the model group

CCCCC(O)c1ccc(Br)cc1C(=O)[O-].[Na+] (stereo not drawn) [BZP, sodium 5-bromo-2-(α-hydroxypentyl)benzoate]
reduction of volume of cerebral infarction compared with Br-NBP group and NBP-K group [1, 6]: better than those in Br-NBP group and NBP-K group | volume of cerebral infarction ([1]; BZP 0.75, 3, 12 and 24 mg/kg, Br-NBP 10.5 mg/kg, NBP-K 9.6 mg/kg, vs model group): significantly reduce | experimental thrombosis compared with the Br-NBP group (experimental thrombosis; high dose group (P<0.01)): weaker than that in the Br-NBP group | experimental thrombosis compared with the ASA group with the same molar dose (experimental thrombosis; high dose group (P>0.05)): no statistical difference | results of experimental thrombosis (experimental thrombosis; high dose group): 0.13±0.03 | results of experimental thrombosis (experimental thrombosis; low dose group): 0.23±0.04 | results of experimental thrombosis (experimental thrombosis; medium dose group): 0.18±0.02 | tissue distribution of BZP ([2]; at 110 minutes of administration): the fat content was the highest | detectability in the brain ([2]; eliminated quickly): cannot be detected after 50 minutes | concentration in the brain ([2]; in vivo): relatively low | conversion of BZP in vivo ([2]; not via NADPH coenzyme/CYP450): rapidly converted to BNBP | ability of tissues to transform BZP in vitro ([2]; spleen has the lowest ability): liver tissue has the strongest ability to transform BZP in vitro | tissue distribution of BZP ([2]; within 50 minutes of administration): higher in the lung tissue | recovery of toxic reactions in the nervous system and respiratory system (in vivo; dogs): recovered within 15 minutes to 4 hours | recovery of toxic reactions in the nervous system and respiratory system (in vivo; rats): recovered within 15 minutes to 4 hours | MTD (in vivo; dog, dogs): 300 mg/kg | MTD (in vivo; rat, rats): 200 mg/kg | mortality and behavioral score within 24 hours ([3]; 12 mg/kg): reduce the mortality and behavioral score | mortalities within 24 hours ([3]; 3 and 12 mg/kg): lower than those in the model group and the NBP-K group | cell survival pathways (PI3K, P-Akt) ([3]; compared with the model group (P<0.01)): significantly increased | behavioral scores [3, 7]: significantly lower | expression of inflammatory circuit factors, apoptosis pathway factors, neuron necrosis rate and apoptosis rate in hippocampal CA1 region [3, 7]: significantly decreased | blood pressure of salt-sensitive rats (salt-sensitive rats; 12 mg/kg, 21 days after administration): significantly reduce the blood pressure | neurobehavior of salt-sensitive rats (salt-sensitive rats; [8]): improve the neurobehavior | volume of cortical infarction (MCAO model rats; 0.75 mg/kg (P<0.01)): significantly reduce the volume of cortex | effect on volume of cerebral infarction compared with Br-NBP group (MCAO model rats; 3 mg/kg of BZP (P<0.01)): better than that of Br-NBP group | muscle strength and balance beam behavior (MCAO model rats; 12 mg/kg): significantly restore | proportion of necrotic neurons and apoptosis rate (MCAO model rats; 12 mg/kg): reduce the proportion of necrotic neurons and apoptosis rate | effect of administration at 0.5 h and 2 h compared with 4 h after ischemia (MCAO model rats; 12 mg/kg (P<0.01)): better than that of 4 h | volume of cerebral infarction, treatment time window (MCAO model rats; 12 mg/kg at 0.5 h, 2 h or 4 h after ischemia, compared with the model group): significantly reduce | improved effects compared with NBPK group (MCAO model rats; 12 mg/kg, muscle strength, balance beam, necrotic neurons, apoptosis rate): significantly better than those of NBPK group | volumes of cerebral infarction (MCAO model rats; 0.75, 3, 12 and 24 mg/kg, compared with the model group (P<0.01)): significantly reduced | neurobehavioral scores (MCAO model rats; 3, 12 and 24 mg/kg, at 2.5 h and 6 h, compared with the model group (P<0.05, P<0.01)): significantly lower | volumes of brain edema (MCAO model rats; 3, 12 and 24 mg/kg, compared with the model group (P<0.01)): significantly reduced | volumes of striatal and cortical infarction (MCAO model rats; 3 and 12 mg/kg (P<0.01)): significantly reduced the volumes of striatal and cortical infarction | effect on volume of cerebral infarction compared with NBP-K and Br-NBP groups (MCAO model rats; [6]): better than those of NBP-K and Br-NBP groups | effect on brain edema compared with NBP-K group and Br-NBP group (MCAO model rats; 24 and 12 mg/kg of BZP (P<0.01)): better than those of NBP-K group and Br-NBP group | brain swelling (MCAO model rats; [9]): significantly reduce | volume of cerebral infarction (MCAO model rats; [9]): significantly reduce | neurobehavior of MCAO model rats (MCAO model rats; [8]): improve the neurobehavior | treatment time window: time of administration after ischemia at which effective (MCAO model rats; especially within 2 hours after ischemia): ≤ 4 h | effective dose to protect against ischemia-reperfusion injury in rats (MCAO model rats; rat, in vivo): 12 mg/kg | inhibition of ADP-induced platelet aggregation (platelet aggregation; ADP-induced): no inhibitory effects | pIC50 (platelet aggregation; Platelet, AA-induced): 4.92 | inhibition of thrombin-induced platelet aggregation (platelet aggregation; thrombin-induced): no inhibitory effects | effectiveness, single dose of 200 mg compared with 100 mg ([4]; acute ischemic stroke patients): significantly more effective than a single dose of 100 mg | effectiveness, 200 mg twice daily compared with 100 mg twice daily ([4]; intravenous infusion for 14 days): significantly more effective than the dosage regimen of a single dose of 100 mg twice daily | accumulation after multiple intravenous infusions ([5]; 7 days): no obvious drug accumulation; also recorded: no significant drug accumulation; also recorded: There was no significant | metabolites other than BNBP ([5]; BZP1702): No significant metabolites other than BNBP were found | accumulation ratio ([5]; after 7 days of continuous administration): 1.10-1.18 | half-life ([5]; intravenous): 5.34 to 5.57 h | half-life ([5]; iv): 11.1 to 13.3 h | difference in AUC0-t and Cmax between subjects of different genders ([5]; multiple doses): not significantly different and 7 days. There was no | mean ratio range between genders, AUC0-t ([5]; multiple doses): 0.797-1.01 | mean ratio range between genders, Cmax ([5]; multiple doses): 0.799-1.01 | day on which blood drug level reached steady state ([5]; multiple intravenous infusions of BZP, 50-200 mg): steady state on the 5th day; also recorded: steady state on the fifth | relationship of AUC0-t and Cmax in plasma with the dose ([5]; multiple intravenous infusions, 50-200 mg, first and steady-state administration): linearly related to the dose; also recorded: linear relationship with the dose
